Data reported in ChEMBL document CHEMBL1158272, “Novel antiplatelet constituents from formosan moraceous plants” (J Nat Prod, 1996).
In brackets after ≈: the same amount, converted by molar mass. Values belong to the compound of their own block, whether it stands above or below them.

Legend:
[1] = Antiplatelet activity against rabbit platelets assessed as arachidonic acid-induced platelet aggregation at 300 uM by turbidimetric method; type: functional, Oryctolagus cuniculus
[2] = Antiplatelet activity against rabbit platelets assessed as collagen-induced platelet aggregation at 300 uM by turbidimetric method; type: functional, Oryctolagus cuniculus
[3] = Antiplatelet activity against rabbit platelets assessed as platelet-activating facto-induced platelet aggregation at 300 uM by turbidimetric method; type: functional, Oryctolagus cuniculus
[4] = Antiplatelet activity against rabbit platelets assessed as thrombin-induced platelet aggregation at 300 uM by turbidimetric method; type: functional, Oryctolagus cuniculus
[5] = Antiplatelet activity against rabbit platelets assessed as arachidonic acid-induced platelet aggregation by turbidimetric method; type: functional, cell-based; settings: Oryctolagus cuniculus
[6] = Antiplatelet activity against human platelets in platelet rich plasma assessed as adrenaline-induced platelet aggregation at 150 uM pretreated 3 mins before adrenaline challenge by turbidimetric method; type: functional
[7] = Antiplatelet activity against human platelets in platelet rich plasma assessed as adrenaline-induced platelet aggregation at 100 uM pretreated 3 mins before adrenaline challenge by turbidimetric method; type: functional
[8] = Inhibition of ram seminal vesicle cyclooxygenase pretreated 2 mins before arachidonate substrate addition; type: tissue-based, Ovis aries
[9] = Antiplatelet activity against rabbit platelets assessed as arachidonic acid-induced platelet aggregation at 50 uM by turbidimetric method; type: functional, Oryctolagus cuniculus
[10] = Antiplatelet activity against rabbit platelets assessed as collagen-induced platelet aggregation at 50 uM by turbidimetric method; type: functional, Oryctolagus cuniculus
[11] = Antiplatelet activity against rabbit platelets assessed as platelet-activating facto-induced platelet aggregation at 50 uM by turbidimetric method; type: functional, Oryctolagus cuniculus
[12] = Antiplatelet activity against rabbit platelets assessed as thrombin-induced platelet aggregation at 50 uM by turbidimetric method; type: functional, Oryctolagus cuniculus
[13] = Antiplatelet activity against human platelets in platelet rich plasma assessed as adrenaline-induced platelet aggregation at 300 uM pretreated 3 mins before adrenaline challenge by turbidimetric method; type: functional
[14] = Antiplatelet activity against rabbit platelets assessed as arachidonic acid-induced platelet aggregation at 20 uM by turbidimetric method; type: functional, Oryctolagus cuniculus
[15] = Antiplatelet activity against rabbit platelets assessed as collagen-induced platelet aggregation at 20 uM by turbidimetric method; type: functional, Oryctolagus cuniculus
[16] = Antiplatelet activity against rabbit platelets assessed as platelet-activating facto-induced platelet aggregation at 20 uM by turbidimetric method; type: functional, Oryctolagus cuniculus
[17] = Antiplatelet activity against rabbit platelets assessed as thrombin-induced platelet aggregation at 20 uM by turbidimetric method; type: functional, Oryctolagus cuniculus
[18] = Antiplatelet activity against rabbit platelets assessed as collagen-induced platelet aggregation by turbidimetric method; type: functional, cell-based; settings: Oryctolagus cuniculus
[19] = Antiplatelet activity against rabbit platelets assessed as arachidonic acid-induced platelet aggregation at 100 uM by turbidimetric method; type: functional, Oryctolagus cuniculus
[20] = Antiplatelet activity against rabbit platelets assessed as collagen-induced platelet aggregation at 100 uM by turbidimetric method; type: functional, Oryctolagus cuniculus
[21] = Antiplatelet activity against rabbit platelets assessed as platelet-activating facto-induced platelet aggregation at 100 uM by turbidimetric method; type: functional, Oryctolagus cuniculus
[22] = Antiplatelet activity against rabbit platelets assessed as thrombin-induced platelet aggregation at 100 uM by turbidimetric method; type: functional, Oryctolagus cuniculus
[23] = Antiplatelet activity against human platelets in platelet rich plasma assessed as adrenaline-induced platelet aggregation at 50 uM pretreated 3 mins before adrenaline challenge by turbidimetric method; type: functional
[24] = Antiplatelet activity against rabbit platelets assessed as arachidonic acid-induced platelet aggregation at <100 uM by turbidimetric method; type: functional, Oryctolagus cuniculus
[25] = Antiplatelet activity against rabbit platelets assessed as collagen-induced platelet aggregation at <100 uM by turbidimetric method; type: functional, Oryctolagus cuniculus
[26] = Antiplatelet activity against rabbit platelets assessed as platelet-activating facto-induced platelet aggregation at <100 uM by turbidimetric method; type: functional, Oryctolagus cuniculus
[27] = Antiplatelet activity against rabbit platelets assessed as thrombin-induced platelet aggregation at <100 uM by turbidimetric method; type: functional, Oryctolagus cuniculus
[28] = Antiplatelet activity against human platelets in platelet rich plasma assessed as adrenaline-induced platelet aggregation at 450 uM pretreated 3 mins before adrenaline challenge by turbidimetric method; type: functional
[29] = Antiplatelet activity against rabbit platelets assessed as collagen-induced platelet aggregation at 60 uM by turbidimetric method; type: functional, Oryctolagus cuniculus
[30] = Antiplatelet activity against rabbit platelets assessed as platelet-activating facto-induced platelet aggregation at 60 uM by turbidimetric method; type: functional, Oryctolagus cuniculus
[31] = Antiplatelet activity against rabbit platelets assessed as arachidonic acid-induced platelet aggregation at 15 uM by turbidimetric method; type: functional, Oryctolagus cuniculus
[32] = Antiplatelet activity against rabbit platelets assessed as collagen-induced platelet aggregation at 15 uM by turbidimetric method; type: functional, Oryctolagus cuniculus
[33] = Antiplatelet activity against rabbit platelets assessed as platelet-activating facto-induced platelet aggregation by turbidimetric method; type: functional, cell-based; settings: Oryctolagus cuniculus
[34] = Antiplatelet activity against rabbit platelets assessed as arachidonic acid-induced platelet aggregation at 30 uM by turbidimetric method; type: functional, Oryctolagus cuniculus
[35] = Antiplatelet activity against rabbit platelets assessed as collagen-induced platelet aggregation at 30 uM by turbidimetric method; type: functional, Oryctolagus cuniculus
[36] = Antiplatelet activity against rabbit platelets assessed as platelet-activating facto-induced platelet aggregation at 30 uM by turbidimetric method; type: functional, Oryctolagus cuniculus

IC50 [5]: 95.9 µM
SMILES: COc1cc(O)c2c(=O)cc(-c3ccc(O)cc3O)oc2c1 [ARTOCARPETIN]
Activity [1]: 0%
Activity [2]: 73.8%
Activity [3]: 85.7%
Activity [4]: 88.2%

IC50 [8]: 155.3 µg/mL (≈ 396 µM)
IC50 [5]: 32.6 µM
SMILES: CC(C)=CCc1c([C@@H]2CCc3ccc(O)cc3O2)cc2c(c1O)OC(C)(C)C=C2 [KAZINOL B]
Activity [6]: 27.6%
Activity [7]: 27.9%
Activity [9]: 0%
Activity [10]: 4%
Activity [11]: 42.6%
Activity [12]: 79.8%
Activity [13]: 23.1%

IC50 [5]: 18.5 µM
IC50 [18]: 23.7 µM
SMILES: COc1ccc2c(c1)OC(C=C(C)C)c1c-2oc2cc(O)c(/C=C/C(C)C)c(O)c2c1=O (stereo unspecified) [CYCLOARTOCARPIN A]
Activity [14]: 39.5%
Activity [15]: 60.9%
Activity [16]: 86.5%
Activity [17]: 89.9%

IC50 [8]: 17.5 µg/mL (≈ 41.4 µM)
IC50 [5]: 16.9 µM
SMILES: CC(C)=CCc1cc(-c2oc3c(CC=C(C)C)c(O)cc(O)c3c(=O)c2O)ccc1O [BROUSSOFLAVONOL F]
Activity [19]: 0%
Activity [20]: 0%
Activity [21]: 84.8%
Activity [22]: 93.1%

SMILES: COc1cc(O)c2c(c1)O[C@H](c1c(OC)cc(OC)cc1OC)CC2=O
Activity [1]: 27.9%
Activity [2]: 66.1%
Activity [3]: 81%
Activity [4]: 83.1%

IC50 [5]: 39.9 µM
SMILES: CC(C)=CCc1c(-c2oc3c(CC=C(C)C)c(O)cc(O)c3c(=O)c2O)cc(O)c(O)c1CC=C(C)C [BROUSSOFLAVONOL E]
Activity [19]: 0%
Activity [20]: 0%
Activity [21]: 86.4%
Activity [22]: 91.8%

IC50 [5]: 41 µM
IC50 [18]: 90.7 µM
SMILES: COc1cc(O)c2c(c1)O[C@H](c1ccc(O)cc1O)CC2=O [ARTOCARPANONE]
Activity [1]: 0%
Activity [2]: 1.1%
Activity [3]: 38.6%
Activity [4]: 90.2%

SMILES: CC(=O)Oc1ccccc1C(=O)O [ASPIRIN]
Activity [23]: 39.6%
Activity [9]: 0%
Activity [10]: 85.4%
Activity [11]: 90.5%
Activity [12]: 91.9%

IC50 [5]: 86.7 µM
SMILES: CC(C)=CCc1c([C@@H]2CCc3ccc(O)cc3O2)cc2c(c1O)OC(C)(C)C(O)C2O (stereo partly specified) [BROUSSOFLAVAN A]
Activity [1]: 0%
Activity [2]: 0%
Activity [3]: 87.9%
Activity [4]: 92%

SMILES: CC(=O)Oc1cc2c(cc1OC(C)=O)-c1oc3c(CC=C(C)C)c4c(c(O)c3c(=O)c1C(C=C(C)C)O2)C=CC(C)(C)O4 (stereo unspecified) [CYCLOHETERPHYLLIN DIACETATE]
Activity [24]: 83.4%
Activity [25]: 4.9%
Activity [26]: 86%
Activity [27]: 91.3%

IC50 [8]: 26.1 µg/mL (≈ 51.9 µM)
IC50 [5]: 10.9 µM
SMILES: CC(C)=CCc1c2c(c(O)c3c(=O)c4c(oc13)-c1cc(O)c(O)cc1OC4C=C(C)C)C=CC(C)(C)O2 (stereo unspecified) [CYCLOHETERPHYLLIN]
Activity [6]: 55.1%
Activity [7]: 61.6%
Activity [1]: 0%
Activity [2]: 33.8%
Activity [3]: 4.5%
Activity [4]: 82.4%
Activity [13]: 35.5%

IC50 [5]: 91.7 µM
SMILES: CC(=O)Oc1cc(O)c(C(=O)/C=C/c2ccc(OC(C)=O)c(OC(C)=O)c2)cc1CC=C(C)C [BROUSSOCHALCONE TRIACETATE]
Activity [1]: 9.3%
Activity [2]: 23.1%
Activity [3]: 0%
Activity [4]: 88.4%
Activity [19]: 9.6%
Activity [21]: 82.1%

SMILES: COc1cc2oc(-c3ccc(O)cc3O)c(CC=C(C)C)c(=O)c2c(O)c1/C=C/C(C)C [ARTOCARPIN]
Activity [14]: 54.8%
Activity [15]: 84%
Activity [16]: 76%
Activity [17]: 87.3%

SMILES: COc1cc(O)c2c(=O)cc(-c3ccc(O)cc3O)oc2c1CC=C(C)C [ARTOCARPETIN A]
Activity [1]: 61.8%
Activity [2]: 46.8%
Activity [3]: 59.8%
Activity [4]: 80.4%

SMILES: COc1cc(OC)c([C@@H]2CC(=O)c3c(O)cc(OC)c(CC=C(C)C)c3O2)c(OC)c1
Activity [1]: 81.5%
Activity [2]: 68.9%
Activity [3]: 84.5%
Activity [4]: 85.7%

IC50 [5]: 49.8 µM
IC50 [18]: 48.7 µM
SMILES: CC(C)=CCc1c(-c2cc(O)c(O)cc2O)oc2c(CC=C(C)C)c3c(c(O)c2c1=O)C=CC(C)(C)O3 [HETEROPHYLLIN]
Activity [19]: 0%
Activity [20]: 0%
Activity [21]: 32%
Activity [22]: 80.2%

IC50 [8]: 19.4 µg/mL (≈ 57 µM)
IC50 [5]: 6.8 µM
IC50 [18]: 22.4 µM
IC50 [33]: 119 µM
SMILES: CC(C)=CCc1cc(C(=O)/C=C/c2ccc(O)c(O)c2)c(O)cc1O [BROUSSOCHALCONE A]
Activity [28]: 40.1%
Activity [29]: 0%
Activity [30]: 67.8%
Activity [31]: 0%
Activity [32]: 55.1%
Activity [13]: 74%

IC50 [8]: 0.7 µg/mL (≈ 1.96 µM)
SMILES: COc1ccc2c(c1)c(CC(=O)O)c(C)n2C(=O)c1ccc(Cl)cc1 [INDOMETHACIN]

SMILES: CC(=O)Oc1cc2c(cc1OC(C)=O)-c1oc3c(CC=C(C)C)c4c(c(OC(C)=O)c3c(=O)c1C(C=C(C)C)O2)C=CC(C)(C)O4 (stereo unspecified) [CYCLOHETERPHYLLIN PERACETATE]
Activity [24]: 74%
Activity [25]: 73%
Activity [26]: 78.3%
Activity [27]: 91%

IC50 [8]: 22.7 µg/mL (≈ 67.1 µM)
IC50 [5]: 15.4 µM
SMILES: CC(C)=CCc1cc2c(cc1O)O/C(=C\c1ccc(O)c(O)c1)C2=O [BROUSSOAURONE A]
Activity [1]: 0%
Activity [2]: 0%
Activity [3]: 89.5%
Activity [4]: 93.7%

IC50 [5]: 11.4 µM
IC50 [18]: 20.7 µM
IC50 [33]: 54.6 µM
SMILES: CC(C)=CCc1cc([C@@H]2CCc3ccc(O)cc3O2)c(CC=C(C)C)c(O)c1O [KAZINOL A]
Activity [34]: 0%
Activity [35]: 0%
Activity [36]: 65.8%
